Patent US4870002A, “Method of prevention of oxidative injury to cells” (priority 1985, dated 1989)
Read-outs that look alike come from different tables or passages of the source.

Tests used:
horseradish peroxidase = target: T1, horseradish peroxidase (Armoracia rusticana, UniProt P00433); experiment: Inhibition of horseradish peroxidase; assay type: biochemical; conditions: read-out: K1
T1 sequence (P00433 31-338 limits assumed): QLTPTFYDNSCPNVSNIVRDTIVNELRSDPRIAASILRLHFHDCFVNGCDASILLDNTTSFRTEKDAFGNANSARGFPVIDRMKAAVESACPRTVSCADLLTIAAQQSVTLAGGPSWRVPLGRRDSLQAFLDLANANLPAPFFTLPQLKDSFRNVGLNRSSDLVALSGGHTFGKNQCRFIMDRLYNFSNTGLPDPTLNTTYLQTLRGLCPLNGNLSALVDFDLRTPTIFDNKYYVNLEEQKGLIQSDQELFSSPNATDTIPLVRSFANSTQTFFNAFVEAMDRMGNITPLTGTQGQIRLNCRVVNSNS

Novikoff hepatoma = experiment: Enhancement of tumor growth by aminotyrosine after dilute hepatoma cell challenge; assay type: in vivo, rat; conditions: 1 mg i.p. daily for five days; ninth day following inoculation; four adult male rats; controls no tumor
Protocol: In order to evaluate whether or not endogenous peroxidases play a role in the natural resistance to neoplastic growth, we injected some rats with a potent inhibitor of the cytotoxic activity of peroxidases and subsequently challanged the animals with a suspension of hepatoma cells.
Four adult male rats were injected i.p. with 1 mg of 3-aminotyrosine in 1 ml of water. Four control rats were injected with 1 ml of water. The following day all rats were injected with 1 ml of a dilute Novikoff hepatoma cell suspension; the number of cells being normally insufficient to produce tumor growth. On the same day, an additional 1 mg aminotyrosine was administered to the rats that received the inhibitor the previous day and this was repeated for three more days. The four control rats similarly received water injections.
On the ninth day following the inoculation with tumor, all rats were sacrificed and examined for the presence of tumor. No tumor was present in any of the control animals.

[1] = Autoxidation of 3-amino-L-tyrosine solutions; assay type: physicochemical; conditions: solutions yellow with age
Text: The binding of 3-amino-L-tyrosine to the cell membrane via its alpha amino group, and the subsequent inhibition of CL by inhibiting the binding of Lu-BSA, is unlikely. […] The subsequent washing removes loosely bound 3-amino-L-tyrosine and the addition of the Lu-BSA at pH 6.9 favors BSA binding by the Schiff base reaction. […] The yellowing of 3-amino-L-tyrosine solutions with age is evidence of the oxidation.

porcine RBCs = experiment: Nonspecific binding of Lu-BSA to porcine RBCs (base-activated chemiluminescence); assay type: cell-based, pig; conditions: for activation at 1490 µM / inhibition at 1490 µM: Sus scrofa; for activation at 1490 µM: read-out: Percent difference from control
Protocol: Blood was collected from Landrace-Duroc swine from a closed herd. Pigs from this herd had previously expressed episodes of porcine stress syndrome (malignant hyperthermia) following halothane anesthesia. The blood was collected into acidic citrated dextrose solution in standard blood bags. The blood was diluted 1:10 in phosphate (0.1M) buffered saline (PBS), pH 7.4, in 10 ml aliquots, centrifuged in a clinical centrifuge, and the erythrocytes were resuspended in fresh PBS. The cells were stored at 4° C. until used in the various assays. The post-collection chronological age of the RBCs used for a particular assay is noted in the results for each assay. The cells were counted in an automated cell counter (Coulter ZBI, Coulter Electronics, Inc., Hialeah, Fla. 33010). Nonspecific binding of Lu-BSA to porcine RBCs was measured following treatment with hydrogen peroxide, pyruvate, and/or 3-amino-L-tyrosine at 4°, 37°, or 45° C. The exposure times for those agents were 15 min, 30 min, or 72 hours. The reagents were removed by centrifugation. Three binding protocols were followed: (1) 0.25 ml of 1:20 RBCs (19 days post collection) were incubated with 0.25 ml of 1 mg/ml Lu-BSA in PBS, pH 6.9, for 30 min at 37° C. and washed (Table 1); (2) 0.05 ml of packed RBCs (less than 24 hours post collection) were resuspended in 0.2 ml of the Lu-BSA solution and incubated overnight at 4° C. […] The cells in all three protocols were washed once in PBS, pH 7.4, and resuspended in PBS to final dilutions of 1:20 for (1) and 1:30 for (2) and (3). Following this preparation, 100 μl of each cell suspension were added to 500 μl of PBS, pH 7.4, in a scintillation vial. The vial was placed in the photometer and the solution was activated by the addition of 100 μl 0.1N NaOH. The settings for the photometer were as previously described for the Con A-Lu-BSA.

[2] = 1.49 mM preincubation and pyruvate 1.33 mM

## Nc1cc(C[C@H](N)C(=O)O)ccc1O [3-aminotyrosine, 3-amino-L-tyrosine]
Horseradish peroxidase
  Ki: 5 µM
Novikoff hepatoma
  presence of tumor, in words: had developed tumor growth
[1]
  autoxidation in solution, in words: readily, autoxidizes
Porcine RBCs; [2]
  CL (counts/30 s): 964 ± 230 counts/30 s
  Percent difference from control: 9%
Porcine RBCs; 1.49 mM with hydrogen peroxide 11.7 mM, 37° C.
  Lu-BSA binding above the 37° C. control: ≤ 14%
Porcine RBCs; 1.49 mM with hydrogen peroxide 11.7 mM, 37° C., 30 min
  CL (30 s): 663 ± 145 counts/30 s
Porcine RBCs; 1.49 mM with hydrogen peroxide 11.7 mM, 37° C., 30 min, vs 4° C. control
  Percent difference from control: 74%
Porcine RBCs; 1.49 mM, 45° C., 30 min
  CL (30 s): 550 ± 126 counts/30 s
Porcine RBCs; 1.49 mM, preincubated at 4° C. for 72 h, RBCs 72 hours post collection
  CL (counts/30 s): 794 ± 156 counts/30 s
Porcine RBCs; 0.5 h, 1.49 mM, 45° C., 30 min, vs 4° C. control
  activation at 1490 µM: 45%
Porcine RBCs; 72 h, 1.49 mM, preincubated at 4° C. for 72 h
  activation at 1490 µM: -10%
Porcine RBCs; 1.49 mM, hydrogen peroxide 11.7 mM, 37° C., read-out: inhibition of Lu-BSA binding induced by hydrogen peroxide
  inhibition at 1490 µM: 51%
Porcine RBCs; RBCs stored at 4° C. in 1.49 mM for 72 hours, read-out: less Lu-BSA bound than RBCs stored in PBS
  inhibition at 1490 µM: 10%
Porcine RBCs; cells preincubated in 1.49 mM, then pyruvate 1.33 mM
  protection from the effects of pyruvate (Lu-BSA binding), in words: protected them from the effects of pyruvate
